Laboratory results reported in BindingDB's records for doi:10.1016/j.bmcl.2013.05.024 (Janssen Research and Development, 2014).

Assay: Antagonist activity at CCR2 receptor in human THP1 cells assessed as inhibition of MCP-1 induced chemotaxis after 3 hrs

| SMILES | IC50 [nM] |
| --- | --- |
| COC1COCCC1N[C@@H]1C[C@H]2CN(C(=O)OCCN3CCOCC3)C[C@@]2(C(=O)N2CCc3ncc(C(F)(F)F)cc3C2)C1 (some centres undefined) | 97 |
| COC1COCCC1N[C@@H]1C[C@H]2CN(C(=O)OCCNC(C)=O)C[C@@]2(C(=O)N2CCc3ncc(C(F)(F)F)cc3C2)C1 (some centres undefined) | 18 |
| COC1COCCC1N[C@@H]1C[C@H]2CN(C(=O)OCC(C)C)C[C@@]2(C(=O)N2CCc3ncc(C(F)(F)F)cc3C2)C1 (some centres undefined) | 21 |
| COC1COCCC1N[C@@H]1C[C@H]2CN(C(=O)OCC(C)(C)C)C[C@@]2(C(=O)N2CCc3ncc(C(F)(F)F)cc3C2)C1 (some centres undefined) | 99 |
| COC1COCCC1N[C@@H]1C[C@H]2CN(C(=O)Oc3ccccc3)C[C@@]2(C(=O)N2CCc3ncc(C(F)(F)F)cc3C2)C1 (some centres undefined) | 950 |
| COC(=O)N1C[C@@H]2C[C@@H](NC3CCOCC3OC)C[C@]2(C(=O)N2CCc3ncc(C(F)(F)F)cc3C2)C1 (some centres undefined) | 69 |
| COC1COCCC1N[C@@H]1C[C@H]2CN(C(N)=NC#N)C[C@@]2(C(=O)N2CCc3ncc(C(F)(F)F)cc3C2)C1 (some centres undefined) | 29 |
| COC1COCCC1N[C@@H]1C[C@H]2CN(C(=O)NC(C)C)C[C@@]2(C(=O)N2CCc3ncc(C(F)(F)F)cc3C2)C1 (some centres undefined) | 81 |
| COC1COCCC1N[C@@H]1C[C@H]2CN(C(=O)C#CC3CC3)C[C@@]2(C(=O)N2CCc3ncc(C(F)(F)F)cc3C2)C1 (some centres undefined) | 39 |
| COC1COCCC1N[C@@H]1C[C@H]2CN(C(=O)/C=C/C(C)(C)C)C[C@@]2(C(=O)N2CCc3ncc(C(F)(F)F)cc3C2)C1 (some centres undefined) | 88 |
| COC1COCCC1N[C@@H]1C[C@H]2CN(c3ccccc3)C[C@@]2(C(=O)N2CCc3ncc(C(F)(F)F)cc3C2)C1 (some centres undefined) | 90 |

More lines, in order of falling IC50, values ahead:

| IC50 [nM] | SMILES |
| --- | --- |
| 230 | COC1COCCC1N[C@@H]1C[C@H]2CN(C(C)=O)C[C@@]2(C(=O)N2CCc3ncc(C(F)(F)F)cc3C2)C1 (some centres undefined) |
| 220 | COC1COCCC1N[C@@H]1C[C@H]2CN(C(=O)NCc3ccccc3)C[C@@]2(C(=O)N2CCc3ncc(C(F)(F)F)cc3C2)C1 (some centres undefined) |
| 190 | COC1COCCC1N[C@@H]1C[C@H]2CN(C(=O)OCc3ccccc3)C[C@@]2(C(=O)N2CCc3ncc(C(F)(F)F)cc3C2)C1 (some centres undefined) |
| 71 | CNC(=O)N1C[C@@H]2C[C@@H](NC3CCOCC3OC)C[C@]2(C(=O)N2CCc3ncc(C(F)(F)F)cc3C2)C1 (some centres undefined) |
| 65 | COC1COCCC1N[C@@H]1C[C@H]2CN(C(=O)OCC3CCOCC3)C[C@@]2(C(=O)N2CCc3ncc(C(F)(F)F)cc3C2)C1 (some centres undefined) |
| 41 | COCCOC(=O)N1C[C@@H]2C[C@@H](NC3CCOCC3OC)C[C@]2(C(=O)N2CCc3ncc(C(F)(F)F)cc3C2)C1 (some centres undefined) |
| 28 | COC1COCCC1N[C@@H]1C[C@H]2CN(C(=O)OCCN3CCCC3)C[C@@]2(C(=O)N2CCc3ncc(C(F)(F)F)cc3C2)C1 (some centres undefined) |
| 27 | COC1COCCC1N[C@@H]1C[C@H]2CN(C(N)=O)C[C@@]2(C(=O)N2CCc3ncc(C(F)(F)F)cc3C2)C1 (some centres undefined) |
